Assay results reported in US8802597B2, “Herbicidal pyrimidines” (E I du Pont de Nemours and Company, priority 2003, dated 2014).

Experiments:
Assay in all cases: Test E flooded paddy water application
Type in all cases: in vivo
[1] = tested on: barnyardgrass (Echinochloa crus-galli); conditions: Flood, 21 days, scale 0 to 100 (0 no effect, 100 complete control); for Plant response rating, Barnyardgrass: 16 g ai/ha
Outline: (§1)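 Weeds sown in sterilized Tama silt loam (2.6% organic matter), greenhouse 29.5/26.7° C, 16-h photoperiod; at 2.0–2.5-leaf stage pots flooded to 3 cm and compound added to paddy water. Visual rating vs untreated controls after 21 days, 0 (no effect) to 100 (complete control).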

[2] = tested on: bearded (brdd.) sprangletop (Leptochloa fusca ssp. fascicularis); conditions: Flood, 21 days, scale 0 to 100 (0 no effect, 100 complete control)
Outline: as §1

[3] = tested on: ducksalad (Heteranthera limosa); conditions: Flood, 21 days, scale 0 to 100 (0 no effect, 100 complete control); for Plant response rating, Ducksalad: 16 g ai/ha
Outline: as §1

[4] = tested on: early watergrass (Echinochloa oryzoides); conditions: Flood, 21 days, scale 0 to 100 (0 no effect, 100 complete control)
Outline: as §1

[5] = tested on: junglerice (Echinochloa colona); conditions: Flood, 21 days, scale 0 to 100 (0 no effect, 100 complete control)
Outline: as §1

[6] = tested on: late watergrass (Echinochloa oryzicola); conditions: Flood, 21 days, scale 0 to 100 (0 no effect, 100 complete control)
Outline: as §1

[7] = tested on: smallflower umbrella sedge (Cyperus difformis); conditions: Flood, 21 days, scale 0 to 100 (0 no effect, 100 complete control)
Outline: as §1

[8] = tested on: transplanted rice seedlings (Oryza sativa cv. ‘Japonica-M202’); conditions: Flood, 21 days, scale 0 to 100 (0 no effect, 100 complete control)
Outline: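 Greenhouse pots of Tama silt loam with weeds and rice at 2.0–2.5-leaf stage, flooded to 3 cm; compounds applied directly into paddy water, depth maintained. Visual rating versus untreated controls after 21 days, 0 (no effect) to 100 (complete control); 29.5/26.7 °C, 16-h photoperiod.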

[9] = tested on: water seeded rice seedlings (Oryza sativa cv. ‘Japonica-M202’); conditions: Flood, 21 days, scale 0 to 100 (0 no effect, 100 complete control)
Outline: as §1

COC(=O)c1nc(-c2ccc(Br)cc2)nc(N)c1Br [Compound 129]
Barnyardgrass plant response rating ([1]; 32 g ai/ha): 0 | Barnyardgrass plant response rating ([1]; 64 g ai/ha): 0 | Barnyardgrass plant response rating ([1]; 125 g ai/ha): 0 | Barnyardgrass plant response rating ([1]; 250 g ai/ha): 0 | Plant response rating, Barnyardgrass [1]: 0 | Sprangletop, Brdd. plant response rating ([2]; 64 g ai/ha): 0 | Sprangletop, Brdd. plant response rating ([2]; 125 g ai/ha): 0 | Sprangletop, Brdd. plant response rating ([2]; 250 g ai/ha): 70 | Plant response rating, Sprangletop, Brdd. ([2]; 16 g ai/ha): 0 | Plant response rating, Sprangletop, Brdd. ([2]; 32 g ai/ha): 0 | Ducksalad plant response rating ([3]; 32 g ai/ha): 100 | Ducksalad plant response rating ([3]; 64 g ai/ha): 100 | Ducksalad plant response rating ([3]; 125 g ai/ha): 100 | Ducksalad plant response rating ([3]; 250 g ai/ha): 100 | Plant response rating, Ducksalad [3]: 100 | Watergrass, Early plant response rating ([4]; 64 g ai/ha): 0 | Watergrass, Early plant response rating ([4]; 125 g ai/ha): 0 | Watergrass, Early plant response rating ([4]; 250 g ai/ha): 0 | Plant response rating, Watergrass, Early ([4]; 16 g ai/ha): 0 | Plant response rating, Watergrass, Early ([4]; 32 g ai/ha): 0 | Junglerice plant response rating ([5]; 64 g ai/ha): 0 | Junglerice plant response rating ([5]; 125 g ai/ha): 0 | Junglerice plant response rating ([5]; 250 g ai/ha): 0 | Plant response rating, Junglerice ([5]; 16 g ai/ha): 0 | Plant response rating, Junglerice ([5]; 32 g ai/ha): 0 | Watergrass, Late plant response rating ([6]; 64 g ai/ha): 0 | Watergrass, Late plant response rating ([6]; 125 g ai/ha): 0 | Watergrass, Late plant response rating ([6]; 250 g ai/ha): 0 | Plant response rating, Watergrass, Late ([6]; 16 g ai/ha): 0 | Plant response rating, Watergrass, Late ([6]; 32 g ai/ha): 0 | Sedge, Umbrella plant response rating ([7]; 64 g ai/ha): 80 | Sedge, Umbrella plant response rating ([7]; 125 g ai/ha): 100 | Sedge, Umbrella plant response rating ([7]; 250 g ai/ha): 100 | Plant response rating, Sedge, Umbrella ([7]; 16 g ai/ha): 0 | Plant response rating, Sedge, Umbrella ([7]; 32 g ai/ha): 60 | Rice, Transplanted plant response rating ([8]; 64 g ai/ha): 0 | Rice, Transplanted plant response rating ([8]; 125 g ai/ha): 0 | Rice, Transplanted plant response rating ([8]; 250 g ai/ha): 0 | Plant response rating, Rice, Transplanted ([8]; 16 g ai/ha): 0 | Plant response rating, Rice, Transplanted ([8]; 32 g ai/ha): 0 | Rice, Water Seeded plant response rating ([9]; 64 g ai/ha): 0 | Rice, Water Seeded plant response rating ([9]; 125 g ai/ha): 0 | Rice, Water Seeded plant response rating ([9]; 250 g ai/ha): 0 | Plant response rating, Rice, Water Seeded ([9]; 16 g ai/ha): 0 | Plant response rating, Rice, Water Seeded ([9]; 32 g ai/ha): 0

Cc1ccc(-c2nc(N)c(Cl)c(C(=O)O)n2)cc1 [Compound 91]
Barnyardgrass plant response rating ([1]; 32 g ai/ha): 0 | Barnyardgrass plant response rating ([1]; 64 g ai/ha): 10 | Barnyardgrass plant response rating ([1]; 125 g ai/ha): 10 | Barnyardgrass plant response rating ([1]; 250 g ai/ha): 10 | Plant response rating, Barnyardgrass [1]: 0 | Sprangletop, Brdd. plant response rating ([2]; 32 g ai/ha): 0 | Sprangletop, Brdd. plant response rating ([2]; 64 g ai/ha): 0 | Sprangletop, Brdd. plant response rating ([2]; 125 g ai/ha): 30 | Sprangletop, Brdd. plant response rating ([2]; 250 g ai/ha): 30 | Ducksalad plant response rating ([3]; 32 g ai/ha): 100 | Ducksalad plant response rating ([3]; 64 g ai/ha): 100 | Ducksalad plant response rating ([3]; 125 g ai/ha): 100 | Ducksalad plant response rating ([3]; 250 g ai/ha): 100 | Plant response rating, Ducksalad [3]: 100 | Watergrass, Early plant response rating ([4]; 32 g ai/ha): 0 | Watergrass, Early plant response rating ([4]; 64 g ai/ha): 0 | Watergrass, Early plant response rating ([4]; 125 g ai/ha): 0 | Watergrass, Early plant response rating ([4]; 250 g ai/ha): 0 | Plant response rating, Watergrass, Early ([4]; 16 g ai/ha): 0 | Junglerice plant response rating ([5]; 32 g ai/ha): 0 | Junglerice plant response rating ([5]; 64 g ai/ha): 0 | Junglerice plant response rating ([5]; 125 g ai/ha): 0 | Junglerice plant response rating ([5]; 250 g ai/ha): 70 | Plant response rating, Junglerice ([5]; 16 g ai/ha): 0 | Watergrass, Late plant response rating ([6]; 32 g ai/ha): 0 | Watergrass, Late plant response rating ([6]; 64 g ai/ha): 0 | Watergrass, Late plant response rating ([6]; 125 g ai/ha): 0 | Watergrass, Late plant response rating ([6]; 250 g ai/ha): 0 | Plant response rating, Watergrass, Late ([6]; 16 g ai/ha): 0 | Sedge, Umbrella plant response rating ([7]; 32 g ai/ha): 0 | Sedge, Umbrella plant response rating ([7]; 64 g ai/ha): 30 | Sedge, Umbrella plant response rating ([7]; 125 g ai/ha): 100 | Sedge, Umbrella plant response rating ([7]; 250 g ai/ha): 100 | Plant response rating, Sedge, Umbrella ([7]; 16 g ai/ha): 0 | Rice, Transplanted plant response rating ([8]; 32 g ai/ha): 0 | Rice, Transplanted plant response rating ([8]; 64 g ai/ha): 0 | Rice, Transplanted plant response rating ([8]; 125 g ai/ha): 0 | Rice, Transplanted plant response rating ([8]; 250 g ai/ha): 10 | Plant response rating, Rice, Transplanted ([8]; 16 g ai/ha): 0 | Rice, Water Seeded plant response rating ([9]; 32 g ai/ha): 0 | Rice, Water Seeded plant response rating ([9]; 64 g ai/ha): 10 | Rice, Water Seeded plant response rating ([9]; 125 g ai/ha): 10 | Rice, Water Seeded plant response rating ([9]; 250 g ai/ha): 20 | Plant response rating, Rice, Water Seeded ([9]; 16 g ai/ha): 0

CCOC(=O)c1nc(-c2ccc3c(c2)OCO3)nc(N)c1Cl [Compound 74]
Barnyardgrass plant response rating ([1]; 32 g ai/ha): 0 | Barnyardgrass plant response rating ([1]; 64 g ai/ha): 0 | Barnyardgrass plant response rating ([1]; 250 g ai/ha): 0 | Plant response rating, Barnyardgrass [1]: 0 | Sprangletop, Brdd. plant response rating ([2]; 32 g ai/ha): 0 | Sprangletop, Brdd. plant response rating ([2]; 64 g ai/ha): 0 | Sprangletop, Brdd. plant response rating ([2]; 125 g ai/ha): 0 | Sprangletop, Brdd. plant response rating ([2]; 250 g ai/ha): 0 | Plant response rating, Sprangletop, Brdd. ([2]; 16 g ai/ha): 0 | Ducksalad plant response rating ([3]; 32 g ai/ha): 100 | Ducksalad plant response rating ([3]; 64 g ai/ha): 100 | Ducksalad plant response rating ([3]; 125 g ai/ha): 100 | Ducksalad plant response rating ([3]; 250 g ai/ha): 100 | Plant response rating, Ducksalad [3]: 100 | Watergrass, Early plant response rating ([4]; 32 g ai/ha): 0 | Watergrass, Early plant response rating ([4]; 64 g ai/ha): 0 | Watergrass, Early plant response rating ([4]; 125 g ai/ha): 0 | Watergrass, Early plant response rating ([4]; 250 g ai/ha): 0 | Plant response rating, Watergrass, Early ([4]; 16 g ai/ha): 0 | Junglerice plant response rating ([5]; 32 g ai/ha): 0 | Junglerice plant response rating ([5]; 64 g ai/ha): 0 | Junglerice plant response rating ([5]; 125 g ai/ha): 0 | Junglerice plant response rating ([5]; 250 g ai/ha): 65 | Plant response rating, Junglerice ([5]; 16 g ai/ha): 0 | Watergrass, Late plant response rating ([6]; 32 g ai/ha): 0 | Watergrass, Late plant response rating ([6]; 64 g ai/ha): 0 | Watergrass, Late plant response rating ([6]; 125 g ai/ha): 0 | Watergrass, Late plant response rating ([6]; 250 g ai/ha): 0 | Plant response rating, Watergrass, Late ([6]; 16 g ai/ha): 0 | Sedge, Umbrella plant response rating ([7]; 32 g ai/ha): 0 | Sedge, Umbrella plant response rating ([7]; 64 g ai/ha): 80 | Sedge, Umbrella plant response rating ([7]; 125 g ai/ha): 95 | Sedge, Umbrella plant response rating ([7]; 250 g ai/ha): 100 | Plant response rating, Sedge, Umbrella ([7]; 16 g ai/ha): 0 | Rice, Transplanted plant response rating ([8]; 32 g ai/ha): 0 | Rice, Transplanted plant response rating ([8]; 64 g ai/ha): 0 | Rice, Transplanted plant response rating ([8]; 125 g ai/ha): 0 | Rice, Transplanted plant response rating ([8]; 250 g ai/ha): 0 | Plant response rating, Rice, Transplanted ([8]; 16 g ai/ha): 0 | Rice, Water Seeded plant response rating ([9]; 32 g ai/ha): 0 | Rice, Water Seeded plant response rating ([9]; 64 g ai/ha): 0 | Rice, Water Seeded plant response rating ([9]; 125 g ai/ha): 0 | Rice, Water Seeded plant response rating ([9]; 250 g ai/ha): 0 | Plant response rating, Rice, Water Seeded ([9]; 16 g ai/ha): 0
